The source of these data is paper PMC4667793 (Journal of medicinal chemistry, 2015).

Values joined by “and” are separate entries in the source; they are usually repeats but may differ in a detail not shown here. Equal values may be shown once. Where a name gives a salt, the structure may show the parent alone.

For data set [1], the target named is T1, MtBPL (Mycobacterium tuberculosis, UniProt I6YFP0). Conditions: for ΔG: from K of displacement ITC, 298 K.
Data set [2] concerns the target T1, MtBPL. Conditions: for -TΔS: calculated from ΔG (displacement) and ΔH (direct titration); for ΔH: direct titration ITC, 25 °C.
For data set [3] the following is noted: cyclonucleoside formation or decomposition at room temperature.
Data set [4] has as its target T1, MtBPL. As to the kind of experiment: biochemical. Conditions: read-out: ΔTm.
The target of data set [5] is T1, MtBPL. As to the kind of experiment: biochemical.
A further data set deals with M. tuberculosis H37Rv. The data set is described as follows: microbe, parasite or virus in culture. Conditions: Mycobacterium tuberculosis.
Data set [6] concerns MDR-TB and XDR-TB strains. Conditions: ten MDR-TB and XDR-TB strains; cited from earlier work.

T1 sequence (I6YFP0 whole entry, looked up): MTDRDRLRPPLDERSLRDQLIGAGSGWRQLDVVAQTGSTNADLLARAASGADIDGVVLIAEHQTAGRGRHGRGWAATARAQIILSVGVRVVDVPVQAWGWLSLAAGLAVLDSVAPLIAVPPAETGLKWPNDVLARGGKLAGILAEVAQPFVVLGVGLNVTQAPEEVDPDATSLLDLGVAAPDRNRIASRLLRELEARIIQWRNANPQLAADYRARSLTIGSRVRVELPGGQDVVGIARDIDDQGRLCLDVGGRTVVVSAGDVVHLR

With `CCN(CC)CC.Nc1ncnc2c1ncn2[C@@H]1O[C@H](CNS(=O)(=O)NC(=O)CCCC[C@@H]2SC[C@@H]3NC(=O)N[C@@H]32)[C@@H](O)[C@H]1F` [Compound 63, 5′-[N-(D-Biotinoyl)sulfamoyl]amino-2′,5′-dideoxy-2′-fluoroadenosine triethylammonium salt], on MtBPL [1], the ΔG was -12.6 ± 0.3 kcal/mol. For the same compound, on MtBPL [2], the “-TΔS” value is on record as 11.8 ± 0.5 kcal/mol; the ΔH is -24.3 kcal/mol and -24.3 ± 0.5 kcal/mol.

For `CCN(CC)CC.Nc1ncnc2c1ncn2[C@@H]1O[C@H](CNS(=O)(=O)NC(=O)CCCC[C@@H]2SC[C@@H]3NC(=O)N[C@@H]32)[C@@H](O)[C@H]1N` [Compound 47], the ΔG at MtBPL [1] was -12.6 ± 1.0 kcal/mol. Further, at MtBPL [2], the “-TΔS” value is 6.5 ± 0.2 kcal/mol and the ΔH is -19.1 ± 0.1 kcal/mol.

Take `CCN(CC)CC.C[C@@]1(O)[C@H](O)[C@@H](COS(=O)(=O)NC(=O)CCCC[C@@H]2SC[C@@H]3NC(=O)N[C@@H]32)O[C@H]1n1cnc2c(N)ncnc21` [Compound 73, 5′-O-[N-(D-Biotinoyl)sulfamoyl]-β-2'-methyladenosine triethylammonium salt]: the chemical stability entry in data set [3] is listed as “resisted any cyclonucleoside formation”. At MtBPL [1], this compound displayed a ΔG of -12.4 ± 0.4 kcal/mol. For the same compound, on MtBPL [2], the “-TΔS” value was 8.1 ± 0.5 kcal/mol and the ΔH is -20.3 ± 0.4 kcal/mol.

Turning to `CCN(CC)CC.Nc1ncnc2c1ncn2[C@@H]1C[C@H](CNS(=O)(=O)NC(=O)CCCC[C@@H]2SC[C@@H]3NC(=O)N[C@@H]32)[C@@H](O)[C@H]1O` [Compound 28], on MtBPL [1], the ΔG was -12.4 kcal/mol and -12.4 ± 0.0 kcal/mol. At MtBPL [2], the “-TΔS” value is given as 7.8 ± 0.2 kcal/mol and the ΔH was -20.2 ± 0.2 kcal/mol.

On to `CCN(CC)CC.Nc1ncnc2c1ncn2[C@@H]1O[C@H](CNS(=O)(=O)NC(=O)CCCC[C@@H]2SC[C@@H]3NC(=O)N[C@@H]32)C[C@H]1O` [Compound 87, 5′-[N-(D-Biotinoyl)sulfamoyl]amino-3′,5′-dideoxyadenosine triethylammonium salt], for which, at MtBPL [1], the ΔG was -12.6 ± 0.1 kcal/mol. In addition, on MtBPL [2], the “-TΔS” value is reported as 8.8 ± 0.6 kcal/mol and the ΔH is -21.4 ± 0.5 kcal/mol.

As usually defined, the ΔTm is the shift of the melting midpoint relative to a reference. For orientation: Kd means the equilibrium constant for the complex coming apart. For `[N-]=[N+]=N[C@H]1[C@H](O)[C@@H](COS(=O)(=O)NC(=O)CCCC[C@@H]2SC[C@@H]3NC(=O)N[C@@H]32)O[C@H]1n1cnc2c(N)ncnc21` [Compound 57, 9-{2′-Azido-5′-O-[N-(D-biotinoyl)sulfamoyl]-2′-deoxy-β-D-arabinofuranosyl}adenine triethylammonium salt], at MtBPL [4], the ΔTm at 43 µM came out at 17 ± 1 °C. For the same compound, the dissociation constant (Kd) on MtBPL [5] came out at 0.027 nM. The chemical stability result in data set [3] is recorded as “resisted any cyclonucleoside formation”. Besides, on MtBPL [1], the “fold more potent than 14 (KD)” value was 32 fold and the ΔG was -14.4 ± 0.2 kcal/mol. The “-TΔS” value at MtBPL [2] was 14.9 ± 0.1 kcal/mol. The same compound yielded an MIC90 in the data set with M. tuberculosis H37Rv above 100 µM.

Regarding `CCN(CC)CC.[N-]=[N+]=N[C@@H]1[C@H](O)[C@@H](CNS(=O)(=O)NC(=O)CCCC[C@@H]2SC[C@@H]3NC(=O)N[C@@H]32)O[C@H]1n1cnc2c(N)ncnc21` [Compound 46], the ΔG at MtBPL [1] was -12.3 ± 0.6 kcal/mol. Moreover, at MtBPL [2], the “-TΔS” value is given as 10.9 ± 0.3 kcal/mol and the ΔH was -23.2 ± 0.2 kcal/mol.

Take `CCN(CC)CC.Nc1ncnc2c1ncn2[C@H]1C=C[C@@H](CNS(=O)(=O)NC(=O)CCCC[C@@H]2SC[C@@H]3NC(=O)N[C@@H]32)C1` [Compound 34]: the ΔG on MtBPL [1] is -11.8 ± 0.2 kcal/mol. Moreover, at MtBPL [2], the “-TΔS” value is recorded as 10.3 ± 0.2 kcal/mol and the ΔH was -22.1 ± 0.2 kcal/mol.

For `CCN(CC)CC.Nc1ncnc2c1ncn2[C@H]1CNC[C@@H](COS(=O)(=O)NC(=O)CCCC[C@@H]2SC[C@@H]3NC(=O)N[C@@H]32)O1` [Compound 82, (2′R,6′S)-9-[6′-({[N-(D-Biotinoyl)sulfamoyl]oxy}methyl)morpholin-2′-yl]adenine triethylammonium salt], the ΔG at MtBPL [1] is -12.9 ± 0.9 kcal/mol. Further, at MtBPL [2], the “-TΔS” value was 5.9 ± 0.1 kcal/mol and the ΔH was -18.8 ± 0.0 kcal/mol.

As to `CCN(CC)CC.Nc1ncnc2c1ncn2[C@@H]1O[C@H](COS(=O)(=O)NC(=O)CCCC[C@@H]2SC[C@@H]3NC(=O)N[C@@H]32)[C@@H](O)[C@@H]1F` [Compound 69, 9-{5′-O-[N-(D-Biotinoyl)sulfamoyl]-2′-deoxy-2′-fluoro-β-D-arabinofuranosyl}adenine triethylammonium salt], the chemical stability result in data set [3] is “resisted any cyclonucleoside formation”. For the same compound, the ΔG at MtBPL [1] was -13.4 ± 0.0 kcal/mol. In addition, on MtBPL [2], the “-TΔS” value was 14.7 ± 0.5 kcal/mol; the ΔH was -28.4 kcal/mol and -28.4 ± 0.6 kcal/mol.

`CCN(CC)CC.Nc1ncnc2c1ncn2[C@H]1CC[C@@H](CNS(=O)(=O)NC(=O)CCCC[C@@H]2SC[C@@H]3NC(=O)N[C@@H]32)C1` [Compound 36] gave a ΔG at MtBPL [1] of -12.6 ± 0.2 kcal/mol. Moreover, at MtBPL [2], the “-TΔS” value is reported as 10.7 ± 0.4 kcal/mol and the ΔH was -23.5 ± 0.4 kcal/mol.

A word on the MIC: it is the smallest concentration in the dilution series that meets the test's criterion for growth inhibition. With `Nc1ncnc2c1ncn2[C@@H]1O[C@H](CNS(=O)(=O)NC(=O)CCCC[C@@H]2SC[C@@H]3NC(=O)N[C@@H]32)[C@@H](O)[C@H]1O` [Compound 14, 5′-[N-(D-biotinoyl)sulfamoyl]amino-5′-deoxyadenosine triethylammonium salt], in data set [6], the minimum inhibitory concentration (MIC) was 0.16 to 0.625 µM. In addition, at MtBPL [2], the “-TΔS” value is given as 6.6 ± 0.1 kcal/mol and the ΔH is -18.9 ± 0.1 kcal/mol.
